Measurements from ChEMBL document CHEMBL5233220, “A review of currently identified small molecule modulators of microRNA function” (Eur J Med Chem, 2020).
Where “and” joins values, the source holds several entries; their conditions need not be identical. Identical values can stand only once. Values belong to the molecule of their own block, whether it stands above or below them.

Legend:
[1] = Inhibition of miR-96 (unknown origin); parameters: species or system Homo sapiens
[2] = Inhibition of miR-18a (unknown origin) […] by qRT-PCR analysis
[3] = Binding affinity to miR-96 (unknown origin) assessed as dissociation constant; parameters: species or system Homo sapiens
[4] = Binding affinity to miR-18a (unknown origin) assessed as dissociation constant
[5] = Inhibition of pre-miR-372 (unknown origin)
[6] = Binding affinity to pre-miR-21 (unknown origin) at U bulge assessed as dissociation constant by dicer assay
[7] = Binding affinity to pre-miR-21 (unknown origin) at A bulge assessed as dissociation constant by dicer assay
[8] = Inhibition of pre-miR-21 (unknown origin)
HeLa [9] = assay: Inhibition of miR-96 maturation in human HeLa cells at 40 uM by luciferase assay relative to control; assay type: cell-based
HeLa [10] = assay: Inhibition of pre-miR-10b maturation in human HeLa cells at 100 uM by luciferase assay relative to control; assay type: cell-based
[11] = Binding affinity to miR-10b (unknown origin) assessed as dissociation constant
HeLa [12] = assay: Inhibition of miR-10b maturation in human HeLa cells at 100 uM by luciferase assay relative to control; assay type: cell-based
HeLa [13] = assay: Inhibition of pre-miR-21 in human HeLa cells by qRT-PCR assay relative to control; assay type: cell-based; details: dose or concentration not given here
[14] = Inhibition of miR-21 in human HeLa cells by luciferase assay; assay type: cell-based
HeLa [15] = assay: Inhibition of miR-21 in human HeLa cells by qRT-PCR assay relative to control; assay type: cell-based; details: dose or concentration not given here
MCF7 = assay: Inhibition of miR-122 in human MCF7 cells relative to control; assay type: cell-based; details: dose or concentration not given here
Protein argonaute-2 = Protein argonaute-2 (Homo sapiens, UniProt Q9UKV8); assay: Binding affinity to AGO2 (unknown origin) assessed as dissociation constant by RIP assay
[16] = Binding affinity to pre-miR-373 (unknown origin) assessed as dissociation constant
[17] = Inhibition of pre-miR-373 (unknown origin) by FRET assay
[18] = Inhibition of pre-miR-373 (unknown origin) at 250 uM by FRET assay relative to control
[19] = Inhibition of pre-miR-372 (unknown origin) by FRET assay
[20] = Inhibition of pre-miR-21 (unknown origin) at 5 uM by FP assay relative to control
[21] = Inhibition of human topoisomerase 2
[22] = Activation of miR-122 (unknown origin) assessed as relative light unit by luciferase assay; details: filed as activator
[23] = Activation of miR-122 (unknown origin) by luciferase assay
[24] = Binding affinity to pre-miR-21 (unknown origin) assessed as dissociation constant by fluorescence-based assay
[25] = Binding affinity to pre-miR-21 (unknown origin) assessed as dissociation constant
[26] = Inhibition of miR-27a (unknown origin) maturation at 5 uM relative to control
[27] = Binding affinity to miR-27a (unknown origin) assessed as dissociation constant by FP assay

Sequence of Protein argonaute-2 (Q9UKV8 whole entry): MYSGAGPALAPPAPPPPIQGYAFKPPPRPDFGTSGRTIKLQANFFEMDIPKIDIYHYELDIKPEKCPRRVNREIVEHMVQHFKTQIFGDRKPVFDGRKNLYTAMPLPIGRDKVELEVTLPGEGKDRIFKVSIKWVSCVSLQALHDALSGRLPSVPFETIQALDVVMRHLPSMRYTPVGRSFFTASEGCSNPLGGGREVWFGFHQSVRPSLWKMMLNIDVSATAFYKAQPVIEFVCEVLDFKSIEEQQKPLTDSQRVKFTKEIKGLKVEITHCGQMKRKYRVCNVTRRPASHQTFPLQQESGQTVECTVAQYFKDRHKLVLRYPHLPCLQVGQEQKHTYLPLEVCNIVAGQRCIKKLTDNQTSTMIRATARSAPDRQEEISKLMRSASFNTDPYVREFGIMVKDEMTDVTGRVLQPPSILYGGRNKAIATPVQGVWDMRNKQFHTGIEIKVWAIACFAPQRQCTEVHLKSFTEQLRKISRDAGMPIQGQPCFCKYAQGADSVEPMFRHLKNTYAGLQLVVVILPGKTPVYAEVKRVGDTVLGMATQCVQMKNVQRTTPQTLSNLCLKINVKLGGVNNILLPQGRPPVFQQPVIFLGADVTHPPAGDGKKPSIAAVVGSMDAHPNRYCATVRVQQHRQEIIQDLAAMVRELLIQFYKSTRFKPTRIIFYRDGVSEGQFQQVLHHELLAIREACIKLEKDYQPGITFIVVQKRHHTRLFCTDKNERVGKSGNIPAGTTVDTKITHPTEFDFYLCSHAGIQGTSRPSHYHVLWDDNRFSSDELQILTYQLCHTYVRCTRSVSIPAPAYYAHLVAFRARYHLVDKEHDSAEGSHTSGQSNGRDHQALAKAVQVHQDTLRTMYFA

SMILES: O=C1c2c(O)ccc(O)c2C(=O)c2c(NCCNCCO)ccc(NCCNCCO)c21 [MITOXANTRONE]
- Kd [6]: 46 nM
- Kd [7]: 33 nM
- IC50 [8]: 3000 nM

SMILES: CN1CCN(c2ccc3nc(-c4cc(C(C)(C)C)c(OCCCC(=O)NCCCN=[N+]=[N-])c(C(C)(C)C)c4)[nH]c3c2)CC1
- inhibition (HeLa [9]): 90%

SMILES: [N-]=[N+]=NC[C@H]1O[C@@H](O[C@H]2[C@H](O[C@H]3O[C@H](CNC(=N)N)[C@@H](O)[C@H](O)[C@H]3NC(=N)N)[C@@H](NC(=N)N)CC[C@@H]2O)[C@H](O)[C@@H]1O[C@H]1O[C@@H](CNC(=N)N)C[C@H](O)[C@H]1NC(=N)N
- inhibition (HeLa [10]): 30%
- Kd [11]: 417 nM
- inhibition (HeLa [12]): 50%

SMILES: O=C(c1ccccc1)c1c2c3c(cccc3c3ccccc13)C(=O)C=C2
- inhibition (MCF7): 30%

SMILES: CCn1cc(C(=O)O)c(=O)c2cc(F)c(N3CCNCC3)nc21 [ENOXACIN]
- IC50 [21]: 30000 nM

SMILES: CN(C)CCN1C(=O)c2cccc3cc(N)cc(c23)C1=O [AMONAFIDE]
- Activity [22]: 0.11 RLU
- IC50 [23]: 3000 nM

Now from value to molecule, other results behind:

- IC50 [1]: 50 nM and 200 nM
- IC50 [2]: 10000 nM
- Kd [3]: 85 nM
- Kd [4]: 30000 nM
SMILES: CN1CCN(c2ccc(-c3ccc4nc(-c5cc(C(C)(C)C)c(OCCCC(=O)NCCCN=[N+]=[N-])c(C(C)(C)C)c5)[nH]c4c3)cc2)CC1

- IC50 [5]: 1060 nM
SMILES: CN(c1ccccc1)C1c2ccccc2N=C(NCCCNCCCCNCCCN)C1(C)C (centres undefined)

- EC50 [14]: 2000 nM
SMILES: C#CCNC(=O)c1ccc(/N=N/c2ccccc2)cc1
- inhibition (HeLa [13]): 87%
- inhibition (HeLa [15]): 87%

- Kd (Protein argonaute-2): 126000 nM
SMILES: CC(NS(=O)(=O)c1ccc2nc(O)c(O)nc2c1)C(=O)O (centres undefined)

- Kd [16]: 14 nM
- IC50 [17]: 5130 nM
- inhibition [18]: 20%
- IC50 [19]: 2430 nM
SMILES: CC(=O)Nc1csc(-c2cccc(NC(=O)CCc3cn([C@H]4O[C@@H](O[C@@H]5[C@@H](O)[C@H](N)C[C@H](N)[C@H]5O[C@H]5O[C@H](CN)[C@@H](O)[C@H](O)[C@H]5N)[C@H](O)[C@@H]4O[C@H]4O[C@@H](CN)[C@@H](O)[C@H](O)[C@H]4N)nn3)c2)n1

- inhibition [20]: 90%
SMILES: NC[C@@H]1O[C@H](O[C@H]2[C@@H](O)[C@H](O[C@@H]3[C@@H](O)[C@H](N)C[C@H](N)[C@H]3O[C@H]3O[C@H](CN)[C@@H](O)[C@H](O)[C@H]3N)O[C@@H]2CSCCNC(=O)CCCCCn2cc(Oc3ccc4c(c3)C(=O)N(O)C(=O)C4)nn2)[C@H](N)[C@@H](O)[C@@H]1O

- Kd [24]: 3700 nM
- Kd [25]: 3700 nM
SMILES: NC(=O)C1=Cc2ccccc2C/C1=N/CC(=S)Nc1ccccc1

- inhibition [26]: 25%
- Kd [27]: 730 nM
SMILES: CNC(=O)c1cc(Oc2ccc(NC(=O)Nc3ccc(Cl)c(C(F)(F)F)c3)c(F)c2)ccn1 [REGORAFENIB]
